According to PubChem BioAssay AID1982 (Sanford-Burnham Center for Chemical Genomics, 2009):
The source made the active and inactive calls. How the calls were made is not given here.

Legend:
Assay in all cases: kinase panel binding selectivity, selectivity assay, biochemical, KINOMEscan (AID 1982)
[1] = biological target: Serine/threonine-protein kinase PLK4 (Homo sapiens) (UniProt O00444); details: KINOMEscan 353-kinase binding panel, qPCR, at 10 µM, stronger effect = lower value
[2] = tested on: PIK3C2B; details: KINOMEscan 353-kinase binding panel, qPCR, at 10 µM, stronger effect = lower value
[3] = tested on: BMPR1A; details: KINOMEscan 353-kinase binding panel, qPCR, at 10 µM, stronger effect = lower value
[4] = tested on: DCAMKL3; details: KINOMEscan 353-kinase binding panel, qPCR, at 10 µM, stronger effect = lower value
[5] = biological target: Tyrosine-protein kinase ABL1 (Homo sapiens) (UniProt P00519); details: KINOMEscan 353-kinase binding panel, qPCR, at 10 µM, stronger effect = lower value
Chain of Tyrosine-protein kinase ABL1 (Homo sapiens) (P00519 whole entry, looked up): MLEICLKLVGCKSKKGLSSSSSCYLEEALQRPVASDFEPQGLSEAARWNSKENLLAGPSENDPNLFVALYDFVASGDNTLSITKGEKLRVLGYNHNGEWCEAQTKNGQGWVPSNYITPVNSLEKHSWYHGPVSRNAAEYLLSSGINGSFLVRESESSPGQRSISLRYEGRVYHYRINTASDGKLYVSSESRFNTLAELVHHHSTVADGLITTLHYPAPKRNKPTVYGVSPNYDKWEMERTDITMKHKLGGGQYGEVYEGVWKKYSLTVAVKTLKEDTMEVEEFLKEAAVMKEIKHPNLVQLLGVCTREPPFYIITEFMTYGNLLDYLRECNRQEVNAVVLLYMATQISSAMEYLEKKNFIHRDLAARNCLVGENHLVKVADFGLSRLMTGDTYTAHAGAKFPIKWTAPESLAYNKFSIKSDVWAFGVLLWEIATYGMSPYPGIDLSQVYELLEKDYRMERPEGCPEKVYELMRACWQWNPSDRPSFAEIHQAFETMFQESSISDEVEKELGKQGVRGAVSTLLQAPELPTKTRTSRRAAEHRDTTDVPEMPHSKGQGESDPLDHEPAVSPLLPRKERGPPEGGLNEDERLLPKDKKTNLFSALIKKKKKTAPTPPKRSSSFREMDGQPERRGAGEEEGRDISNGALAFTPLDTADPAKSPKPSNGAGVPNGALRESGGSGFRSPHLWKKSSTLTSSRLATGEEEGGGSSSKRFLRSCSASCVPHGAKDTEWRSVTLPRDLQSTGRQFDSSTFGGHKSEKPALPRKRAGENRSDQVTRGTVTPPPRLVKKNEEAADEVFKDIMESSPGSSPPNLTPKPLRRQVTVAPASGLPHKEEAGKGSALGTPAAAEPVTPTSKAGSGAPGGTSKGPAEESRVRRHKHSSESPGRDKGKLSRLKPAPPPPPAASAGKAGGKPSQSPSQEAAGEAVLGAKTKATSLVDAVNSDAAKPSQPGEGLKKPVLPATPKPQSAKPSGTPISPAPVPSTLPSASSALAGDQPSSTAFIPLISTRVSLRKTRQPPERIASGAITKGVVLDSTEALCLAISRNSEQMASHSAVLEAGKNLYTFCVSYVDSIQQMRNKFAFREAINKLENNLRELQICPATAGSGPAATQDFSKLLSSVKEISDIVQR

[6] = tested on: TLK1; details: KINOMEscan 353-kinase binding panel, qPCR, at 10 µM, stronger effect = lower value
[7] = tested on: EPHA5; details: KINOMEscan 353-kinase binding panel, qPCR, at 10 µM, stronger effect = lower value
[8] = biological target: Serine/threonine-protein kinase 3 (Homo sapiens) (UniProt Q13188); details: KINOMEscan 353-kinase binding panel, qPCR; MST2; at 10 µM; stronger effect = lower value
Chain of Serine/threonine-protein kinase 3 (Homo sapiens) (Q13188 whole entry, looked up): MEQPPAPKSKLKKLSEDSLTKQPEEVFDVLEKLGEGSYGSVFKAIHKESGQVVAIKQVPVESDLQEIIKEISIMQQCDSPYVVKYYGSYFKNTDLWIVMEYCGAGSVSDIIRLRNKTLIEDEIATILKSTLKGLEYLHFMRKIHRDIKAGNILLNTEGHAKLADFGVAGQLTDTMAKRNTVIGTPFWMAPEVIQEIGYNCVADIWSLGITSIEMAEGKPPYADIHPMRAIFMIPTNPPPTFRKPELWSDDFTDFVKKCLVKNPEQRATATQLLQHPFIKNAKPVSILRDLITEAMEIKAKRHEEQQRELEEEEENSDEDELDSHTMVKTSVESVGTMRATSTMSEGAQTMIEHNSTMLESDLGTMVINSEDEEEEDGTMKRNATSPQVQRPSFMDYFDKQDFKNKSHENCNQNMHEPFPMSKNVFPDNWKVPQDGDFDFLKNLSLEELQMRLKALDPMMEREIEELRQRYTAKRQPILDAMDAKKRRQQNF

[9] = biological target: Serine/threonine-protein kinase pim-3 (Homo sapiens) (UniProt Q86V86); details: KINOMEscan 353-kinase binding panel, qPCR; PIM3; at 10 µM; stronger effect = lower value
[10] = tested on: TEC; details: KINOMEscan 353-kinase binding panel, qPCR, at 10 µM, stronger effect = lower value
[11] = biological target: Serine/threonine-protein kinase PAK 1 (Homo sapiens) (UniProt Q13153); details: KINOMEscan 353-kinase binding panel, qPCR; PAK1; at 10 µM; stronger effect = lower value
[12] = biological target: Macrophage-stimulating protein receptor (Homo sapiens) (UniProt Q04912); details: KINOMEscan 353-kinase binding panel, qPCR; MST1R; at 10 µM; stronger effect = lower value
[13] = biological target: Tyrosine-protein kinase Blk (Homo sapiens) (UniProt P51451); details: KINOMEscan 353-kinase binding panel, qPCR, at 10 µM, stronger effect = lower value
[14] = tested on: TESK1; details: KINOMEscan 353-kinase binding panel, qPCR, at 10 µM, stronger effect = lower value
[15] = tested on: BIKE; details: KINOMEscan 353-kinase binding panel, qPCR, at 10 µM, stronger effect = lower value
[16] = biological target: Mitogen-activated protein kinase kinase kinase kinase 4 (Homo sapiens) (UniProt O95819); details: KINOMEscan 353-kinase binding panel, qPCR; MAP4K4; at 10 µM; stronger effect = lower value
Chain of Mitogen-activated protein kinase kinase kinase kinase 4 (Homo sapiens) (O95819 whole entry, looked up): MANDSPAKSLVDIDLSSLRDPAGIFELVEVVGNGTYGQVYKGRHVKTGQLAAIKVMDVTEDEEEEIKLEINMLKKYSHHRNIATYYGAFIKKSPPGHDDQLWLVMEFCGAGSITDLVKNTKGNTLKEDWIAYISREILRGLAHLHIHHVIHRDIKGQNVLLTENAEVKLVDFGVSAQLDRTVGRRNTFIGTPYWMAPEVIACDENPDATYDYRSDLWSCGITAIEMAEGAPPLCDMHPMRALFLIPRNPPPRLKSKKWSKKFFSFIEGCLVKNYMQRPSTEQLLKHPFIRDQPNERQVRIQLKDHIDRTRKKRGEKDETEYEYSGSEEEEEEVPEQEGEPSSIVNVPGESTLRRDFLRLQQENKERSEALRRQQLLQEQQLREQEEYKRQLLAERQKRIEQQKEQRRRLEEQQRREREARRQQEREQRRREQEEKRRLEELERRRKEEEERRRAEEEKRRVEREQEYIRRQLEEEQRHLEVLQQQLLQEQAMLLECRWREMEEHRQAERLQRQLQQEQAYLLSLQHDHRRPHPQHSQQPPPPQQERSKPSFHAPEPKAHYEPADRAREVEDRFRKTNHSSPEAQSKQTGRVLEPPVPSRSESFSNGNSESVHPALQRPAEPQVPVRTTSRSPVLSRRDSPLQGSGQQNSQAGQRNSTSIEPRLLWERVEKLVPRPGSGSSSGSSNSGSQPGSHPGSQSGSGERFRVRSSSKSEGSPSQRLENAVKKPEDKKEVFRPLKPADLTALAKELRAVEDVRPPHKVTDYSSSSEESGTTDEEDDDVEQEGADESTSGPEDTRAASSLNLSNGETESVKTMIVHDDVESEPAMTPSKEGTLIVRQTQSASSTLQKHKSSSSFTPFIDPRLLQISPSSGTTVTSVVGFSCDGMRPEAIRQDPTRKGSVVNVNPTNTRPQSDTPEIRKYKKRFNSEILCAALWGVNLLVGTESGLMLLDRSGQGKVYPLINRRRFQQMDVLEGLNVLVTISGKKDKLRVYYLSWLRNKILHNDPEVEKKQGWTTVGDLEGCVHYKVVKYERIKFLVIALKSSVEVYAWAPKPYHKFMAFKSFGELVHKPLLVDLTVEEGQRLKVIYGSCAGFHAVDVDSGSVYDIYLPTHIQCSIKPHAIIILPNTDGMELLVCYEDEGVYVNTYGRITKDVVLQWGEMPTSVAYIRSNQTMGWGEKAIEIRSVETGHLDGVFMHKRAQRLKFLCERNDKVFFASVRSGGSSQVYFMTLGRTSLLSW

[17] = tested on: EPHA8; details: KINOMEscan 353-kinase binding panel, qPCR, at 10 µM, stronger effect = lower value
[18] = biological target: Aurora kinase B (Homo sapiens) (UniProt Q96GD4); details: KINOMEscan 353-kinase binding panel, qPCR; AURKB; at 10 µM; stronger effect = lower value
[19] = tested on: MYLK2; details: KINOMEscan 353-kinase binding panel, qPCR, at 10 µM, stronger effect = lower value
[20] = tested on: RIPK4; details: KINOMEscan 353-kinase binding panel, qPCR, at 10 µM, stronger effect = lower value
[21] = biological target: Protein-tyrosine kinase 2-beta (Homo sapiens) (UniProt Q14289); details: KINOMEscan 353-kinase binding panel, qPCR; PTK2B; at 10 µM; stronger effect = lower value
[22] = tested on: p38-delta; details: KINOMEscan 353-kinase binding panel, qPCR, at 10 µM, stronger effect = lower value
[23] = tested on: PIP5K1A; details: KINOMEscan 353-kinase binding panel, qPCR, at 10 µM, stronger effect = lower value
[24] = tested on: EPHB2; details: KINOMEscan 353-kinase binding panel, qPCR, at 10 µM, stronger effect = lower value
[25] = tested on: SRPK3; details: KINOMEscan 353-kinase binding panel, qPCR, at 10 µM, stronger effect = lower value
[26] = tested on: PKMYT1; details: KINOMEscan 353-kinase binding panel, qPCR, at 10 µM, stronger effect = lower value
[27] = biological target: Cyclin-dependent kinase 19 (Homo sapiens) (UniProt Q9BWU1); details: KINOMEscan 353-kinase binding panel, qPCR; CDK11; at 10 µM; stronger effect = lower value
Chain of Cyclin-dependent kinase 19 (Homo sapiens) (Q9BWU1 whole entry, looked up): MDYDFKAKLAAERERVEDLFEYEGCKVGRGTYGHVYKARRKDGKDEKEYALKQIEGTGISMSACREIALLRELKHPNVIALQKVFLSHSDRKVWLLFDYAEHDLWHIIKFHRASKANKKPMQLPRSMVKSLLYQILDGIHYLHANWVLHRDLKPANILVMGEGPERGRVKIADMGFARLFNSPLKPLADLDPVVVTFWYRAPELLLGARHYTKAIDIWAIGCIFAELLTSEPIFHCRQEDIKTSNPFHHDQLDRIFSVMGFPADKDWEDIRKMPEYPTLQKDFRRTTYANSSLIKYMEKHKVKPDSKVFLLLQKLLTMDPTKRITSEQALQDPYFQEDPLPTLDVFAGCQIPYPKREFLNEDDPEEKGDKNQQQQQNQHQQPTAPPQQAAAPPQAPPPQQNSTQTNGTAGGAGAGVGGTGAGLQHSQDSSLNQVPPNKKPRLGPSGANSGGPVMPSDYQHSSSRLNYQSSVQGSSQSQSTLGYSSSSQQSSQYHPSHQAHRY

[28] = biological target: Serine/threonine-protein kinase Chk1 (Homo sapiens) (UniProt O14757); details: KINOMEscan 353-kinase binding panel, qPCR; CHEK1; at 10 µM; stronger effect = lower value
Chain of Serine/threonine-protein kinase Chk1 (Homo sapiens) (O14757 whole entry, looked up): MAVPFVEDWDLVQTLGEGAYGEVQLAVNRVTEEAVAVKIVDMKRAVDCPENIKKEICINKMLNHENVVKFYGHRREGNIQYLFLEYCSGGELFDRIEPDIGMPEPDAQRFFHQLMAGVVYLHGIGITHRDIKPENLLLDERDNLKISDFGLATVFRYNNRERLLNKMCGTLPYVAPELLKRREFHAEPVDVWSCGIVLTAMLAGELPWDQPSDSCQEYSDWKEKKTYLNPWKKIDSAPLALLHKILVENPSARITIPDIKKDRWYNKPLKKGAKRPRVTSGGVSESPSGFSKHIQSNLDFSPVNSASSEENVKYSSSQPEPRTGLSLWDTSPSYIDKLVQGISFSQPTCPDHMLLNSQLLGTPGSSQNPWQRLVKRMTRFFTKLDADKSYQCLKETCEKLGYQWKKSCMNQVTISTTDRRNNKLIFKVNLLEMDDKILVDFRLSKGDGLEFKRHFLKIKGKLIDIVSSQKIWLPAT

[29] = tested on: PIK3CA(E545K); details: KINOMEscan 353-kinase binding panel, qPCR, at 10 µM, stronger effect = lower value
[30] = tested on: LKB1; details: KINOMEscan 353-kinase binding panel, qPCR, at 10 µM, stronger effect = lower value
[31] = tested on: CDC2L1; details: KINOMEscan 353-kinase binding panel, qPCR, at 10 µM, stronger effect = lower value
[32] = biological target: Serine/threonine-protein kinase MARK2 (Homo sapiens) (UniProt Q7KZI7); details: KINOMEscan 353-kinase binding panel, qPCR, at 10 µM, stronger effect = lower value
Chain of Serine/threonine-protein kinase MARK2 (Homo sapiens) (Q7KZI7 whole entry, looked up): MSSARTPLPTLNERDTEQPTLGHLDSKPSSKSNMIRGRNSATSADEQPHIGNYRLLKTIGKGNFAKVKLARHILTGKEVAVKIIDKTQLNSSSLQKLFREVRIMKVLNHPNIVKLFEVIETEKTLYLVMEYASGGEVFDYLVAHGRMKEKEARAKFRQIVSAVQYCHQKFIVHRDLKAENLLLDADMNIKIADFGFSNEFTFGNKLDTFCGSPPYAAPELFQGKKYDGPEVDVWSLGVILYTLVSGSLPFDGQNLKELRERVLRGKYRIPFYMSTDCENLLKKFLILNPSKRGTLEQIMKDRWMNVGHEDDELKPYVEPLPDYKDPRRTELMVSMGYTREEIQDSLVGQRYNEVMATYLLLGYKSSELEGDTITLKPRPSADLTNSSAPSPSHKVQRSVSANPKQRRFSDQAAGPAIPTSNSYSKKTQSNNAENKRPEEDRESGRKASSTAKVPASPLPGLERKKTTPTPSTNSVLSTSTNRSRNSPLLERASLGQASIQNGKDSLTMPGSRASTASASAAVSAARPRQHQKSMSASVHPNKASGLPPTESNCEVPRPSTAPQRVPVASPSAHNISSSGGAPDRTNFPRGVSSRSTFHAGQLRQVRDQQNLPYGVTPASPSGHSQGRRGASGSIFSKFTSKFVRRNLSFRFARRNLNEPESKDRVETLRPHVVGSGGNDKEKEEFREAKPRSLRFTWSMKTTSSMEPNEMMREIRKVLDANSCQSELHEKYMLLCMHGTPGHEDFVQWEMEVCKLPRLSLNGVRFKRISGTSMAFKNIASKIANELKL

[33] = tested on: FGR; details: KINOMEscan 353-kinase binding panel, qPCR, at 10 µM, stronger effect = lower value
[34] = biological target: Casein kinase I isoform gamma-1 (Homo sapiens) (UniProt Q9HCP0); details: KINOMEscan 353-kinase binding panel, qPCR; CSNK1G1; at 10 µM; stronger effect = lower value
Chain of Casein kinase I isoform gamma-1 (Homo sapiens) (Q9HCP0 whole entry, looked up, canonical isoform): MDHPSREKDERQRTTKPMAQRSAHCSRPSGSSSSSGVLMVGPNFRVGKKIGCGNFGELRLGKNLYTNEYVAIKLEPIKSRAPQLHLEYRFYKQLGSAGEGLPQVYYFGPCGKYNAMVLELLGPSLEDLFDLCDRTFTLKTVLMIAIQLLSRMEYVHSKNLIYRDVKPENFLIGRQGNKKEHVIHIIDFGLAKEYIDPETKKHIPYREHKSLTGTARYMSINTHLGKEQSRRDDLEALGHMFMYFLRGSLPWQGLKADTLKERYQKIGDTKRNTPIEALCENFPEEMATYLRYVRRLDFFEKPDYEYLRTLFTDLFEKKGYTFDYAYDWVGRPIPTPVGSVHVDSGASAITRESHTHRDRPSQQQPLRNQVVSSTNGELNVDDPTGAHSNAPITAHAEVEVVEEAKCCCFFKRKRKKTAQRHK

[35] = tested on: p38-beta; details: KINOMEscan 353-kinase binding panel, qPCR, at 10 µM, stronger effect = lower value
[36] = tested on: ACVR2B; details: KINOMEscan 353-kinase binding panel, qPCR, at 10 µM, stronger effect = lower value

percent of control binding [1]: 91% (inactive) | percent of control binding [2]: 90% (inactive) | percent of control binding [3]: 97% (inactive) | percent of control binding [4]: 100% (inactive) | percent of control binding [5]: 100% (inactive) | percent of control binding ([5]; ABL1(E255K)): 94% (inactive) | percent of control binding ([5]; ABL1(F317I)): 100% (inactive) | percent of control binding ([5]; ABL1(F317L)): 92% (inactive) | percent of control binding ([5]; ABL1(H396P)): 98% (inactive) | percent of control binding ([5]; ABL1(M351T)): 100% (inactive) | percent of control binding ([5]; ABL1(Q252H)): 100% (inactive) | percent of control binding ([5]; ABL1(T315I)): 86% (inactive) | percent of control binding ([5]; ABL1(Y253F)): 100% (inactive) | percent of control binding [6]: 30% | percent of control binding [7]: 87% (inactive) | percent of control binding [8]: 100% (inactive) | percent of control binding [9]: 100% (inactive) | percent of control binding [10]: 98% (inactive) | percent of control binding [11]: 67% (inactive) | percent of control binding [12]: 100% (inactive) | percent of control binding [13]: 99% (inactive) | percent of control binding [14]: 89% (inactive) | percent of control binding [15]: 98% (inactive) | percent of control binding [16]: 66% (inactive) | percent of control binding [17]: 88% (inactive) | percent of control binding [18]: 100% (inactive) | percent of control binding [19]: 97% (inactive) | percent of control binding [20]: 89% (inactive) | percent of control binding [21]: 100% (inactive) | percent of control binding [22]: 100% (inactive) | percent of control binding [23]: 77% (inactive) | percent of control binding [24]: 96% (inactive) | percent of control binding [25]: 87% (inactive) | percent of control binding [26]: 100% (inactive) | percent of control binding [27]: 75% (inactive) | percent of control binding [28]: 100% (inactive) | percent of control binding [29]: 100% (inactive) | percent of control binding [30]: 100% (inactive) | percent of control binding [31]: 81% (inactive) | percent of control binding [32]: 100% (inactive) | percent of control binding [33]: 100% (inactive) | percent of control binding [34]: 91% (inactive) | percent of control binding [35]: 100% (inactive) | percent of control binding [36]: 100% (inactive)
SMILES: Cc1cc2nc(NCCCO)n(CC(=O)c3cc(C(C)(C)C)c(O)c(C(C)(C)C)c3)c2cc1C
